# Assay results as given in article PMC3441526, “KCN1, a Novel Synthetic Sulfonamide Anticancer Agent: In Vitro and In Vivo Anti-Pancreatic Cancer Activities and Preclinical Pharmacology” (PLoS ONE, 2012).
# Read-outs that look alike come from different tables or passages of the source.
# Assays:
# [1] = Pharmacokinetic study in mice; assay type: in vivo, nude mice (nu/nu); conditions: for dose recovered as parental KCN1 from urine: first 24 hr
# Protocol: (§1) Female CD-1 and nude mice were administered 35 mg/kg body weight of KCN1 as either a single intravenous injection via a tail vein or via an intraperitoneal injection. At selected time points after dosing, groups of three mice/time point were subjected to a retro-orbital bleed. The blood was collected into heparinized tubes, and plasma was separated by centrifugation. Tissues (brain, skeletal muscle, kidneys, liver, spleen, and heart) were collected by necropsy. Urine and feces were collected on ice for 24 h from mice housed in metabolic cages (n = 3/study). The collection containers and cages were washed twice with 0.9% saline solution, and each urine collection and each wash was analyzed separately, then values were added together for each mouse to determine the total KCN1 present in urine during the collection period. Pharmacokinetic values were derived using Phoenix WinNonlin Version 6.0 (Mountain View, CA).
# An HPLC protocol was developed to detect KCN1 in different matrices (plasma, urine or tissue homogenates) using an Agilent 1120 instrument. KCN1 was separated on a Zorbax SB-C18 (5 µm, 150 × 4.6 mm) analytical column with a Zorbax Reliance Cartridge Guard Column (SB-C18), and the eluate was monitored by UV at 254 nm. The mobile phase was composed of “A” (methanol +0.1% Et3N)-“B” (ddH2O+0.1% Et3N) (80∶20, v/v). Prior to application, the mobile phase was filtered and degassed using a Millipore glass filter system with a nylon membrane (0.2 µm). The peaks for KCN1 were used to establish standard curves and for quantitative analysis of samples. Quantification of the compound was achieved by determination of the peak area at the retention time of approximately 4.4 minutes.
# Plasma (100 µL) was mixed with 200 µL of methanol, vortexed, and centrifuged to remove precipitated proteins. The supernatant was evaporated to dryness under a stream of air. The residue was dissolved in 100 µL of the mobile phase, and 10 µL was injected onto the HPLC system for analysis. Weighed tissues were homogenized in two to five volumes of PBS (based on the weight of the tissue samples), and portions of the homogenates were processed in the same manner as the plasma samples.
# Panc-1 cells [2] = assay: Annexin V apoptosis assay; assay type: cell-based, human; conditions: Panc-1, 50 µM, 48 h
# Protocol: (§2) Cells in early and late stages of apoptosis were detected using an Annexin V-FITC apoptosis detection kit from BioVision (Mountain View, CA), according the manufacturer’s protocol, [47]. In brief, 2–3×10^5 cells were exposed to various doses of the test compound KCN1 (0, 5, 12.5, 50 µM) and incubated for 48 h prior to analysis. The samples were analyzed using a Becton Dickinson FACSCalibur instrument (Ex = 488 nm; Em = 530 nm). Cells that were positive for Annexin V-FITC alone (early apoptosis) and Annexin V-FITC and PI (late apoptosis) were counted.
# HPAC cells [3] = assay: Annexin V apoptosis assay; assay type: cell-based, human; conditions: 50 µM, 48 h, against untreated control
# Protocol: as §2
# BxPC3 cells = assay: Annexin V apoptosis assay; assay type: cell-based, human; conditions: BxPC3, 50 µM, 48 h
# Protocol: as §2
# Mia Paca-2 cells = assay: Annexin V apoptosis assay; assay type: cell-based, human; conditions: Mia Paca-2, 50 µM, 48 h
# Protocol: as §2
# S9 metabolism = assay type: in vitro ADME, CD2F1 mice
# Protocol: The in vitro metabolism of KCN1 was determined using hepatic microsomal S9 fractions from CD2F1 mice (In Vitro Technologies, Boston, MA). The reaction mixture consisted of 20 µL of 1000 µM KCN1 (in DMSO) and 1280 µL of cold 100 mM Tris buffer (pH 7.4). The reactions were initiated by adding 200 µL of the appropriate S9 fraction, and were maintained at 37°C. […] Metabolic reactions were initiated by adding phase I (NADPH-regenerating systems) or phase II (UDPGA and PAPS) reagents to the reaction mixtures, respectively. At designated time points (0, 15, 30, 45, and 60 min), duplicate 100 µL portions of the incubation mixture were removed and subjected to HPLC analysis by the same procedure described for plasma samples above. The stability of the drug was determined by analysis of intact KCN1, in comparison with negative control (without S9 fractions).
# Panc-1 cells [4] = assay: Anchorage-independent growth assay (soft agar); assay type: cell-based, human; conditions: Panc-1, soft agar, 14 days
# Protocol: (§3) Pancreatic cancer cells were treated with various concentrations of KCN1 in 0.8 ml of 0.35% agar containing 10% FBS. The cultures were maintained in 37°C, 5% CO2 incubator for two weeks. Then, cell colonies were observed and scored under a microscope.
# HPAC cells [5] = assay: Anchorage-independent growth assay (soft agar); assay type: cell-based, human; conditions: 14 days
# Protocol: as §3
# [6] = Pharmacokinetic study, faecal recovery and late detection (strain not stated); assay type: in vivo, mice; conditions: for initial dose of parental compound recovered in feces: mice
# Protocol: as §1
# immortalized fibroblasts = tested on: immortalized fibroblasts; set-up: method as in PMID 22923450; conditions: immortalized fibroblasts ref 31; cited from earlier work
# [7] = Tolerability on repeated intraperitoneal dosing; assay type: in vivo, mice
# [8] = nude mice, 35 mg/kg, either route
structure (smiles),measurement,setting,value
"COc1ccc(S(=O)(=O)N(Cc2ccc3c(c2)C=CC(C)(C)O3)c2ccccc2)cc1OC [KCN1, 3,4-dimethoxy-N-[(2,2-dimethyl-2H-chromen-6-yl)methyl]-N-phenylbenzenesulfonamide]",Tmax,"[1]; female, nude (nu/nu), mouse, plasma, ip, nude mice, I.P. 35 mg/kg, read-out: time of maximum plasma level",2 h
same,concentration at 6 h,"[1]; female, nude (nu/nu), mouse, plasma, iv, nude mice, I.V. 35 mg/kg, 6 h after dosing",< 300 ng/mL
same,concentration at 5 min,"[1]; female, nude (nu/nu), mouse, plasma, iv, nude mice, bolus I.V. 35 mg/kg, 5 minutes",5190 ng/mL
same,half-life,"[1]; female, nude (nu/nu), mouse, Brain, Nu/nu, IP 35 mg/kg",0.95 h
same,Tmax,"[1]; female, nude (nu/nu), mouse, Brain, Nu/nu, IP 35 mg/kg, read-out: Tmax",1 h
same,half-life,"[1]; female, nude (nu/nu), mouse, Brain, Nu/nu, IV 35 mg/kg",3.38 h
same,Tmax,"[1]; female, nude (nu/nu), mouse, Brain, Nu/nu, IV 35 mg/kg, read-out: Tmax",0.08 h
same,half-life,"[1]; female, nude (nu/nu), mouse, Heart, Nu/nu, IP 35 mg/kg",1.22 h
same,Tmax,"[1]; female, nude (nu/nu), mouse, Heart, Nu/nu, IP 35 mg/kg, read-out: Tmax",0.08 h
same,half-life,"[1]; female, nude (nu/nu), mouse, Heart, Nu/nu, IV 35 mg/kg",0.36 h
same,Tmax,"[1]; female, nude (nu/nu), mouse, Heart, Nu/nu, IV 35 mg/kg, read-out: Tmax",4 h
same,half-life,"[1]; female, nude (nu/nu), mouse, Kidneys, Nu/nu, IP 35 mg/kg",22.4 h
same,Tmax,"[1]; female, nude (nu/nu), mouse, Kidneys, Nu/nu, IP 35 mg/kg, read-out: Tmax",0.25 h
same,half-life,"[1]; female, nude (nu/nu), mouse, Kidneys, Nu/nu, IV 35 mg/kg",1.8 h
same,Tmax,"[1]; female, nude (nu/nu), mouse, Kidneys, Nu/nu, IV 35 mg/kg, read-out: Tmax",0.08 h
same,half-life,"[1]; female, nude (nu/nu), mouse, Liver, Nu/nu, IP 35 mg/kg",2.52 h
same,Tmax,"[1]; female, nude (nu/nu), mouse, Liver, Nu/nu, IP 35 mg/kg, read-out: Tmax",0.5 h
same,half-life,"[1]; female, nude (nu/nu), mouse, Liver, Nu/nu, IV 35 mg/kg",3.39 h
same,Tmax,"[1]; female, nude (nu/nu), mouse, Liver, Nu/nu, IV 35 mg/kg, read-out: Tmax",2 h
same,half-life,"[1]; female, nude (nu/nu), mouse, Lungs, Nu/nu, IP 35 mg/kg",1.04 h
same,Tmax,"[1]; female, nude (nu/nu), mouse, Lungs, Nu/nu, IP 35 mg/kg, read-out: Tmax",1 h
same,half-life,"[1]; female, nude (nu/nu), mouse, Lungs, Nu/nu, IV 35 mg/kg",2 h
same,Tmax,"[1]; female, nude (nu/nu), mouse, Lungs, Nu/nu, IV 35 mg/kg, read-out: Tmax",0.25 h
same,half-life,"[1]; female, nude (nu/nu), mouse, Muscle, Nu/nu, IP 35 mg/kg",2.97 h
same,Tmax,"[1]; female, nude (nu/nu), mouse, Muscle, Nu/nu, IP 35 mg/kg, read-out: Tmax",0.25 h
same,half-life,"[1]; female, nude (nu/nu), mouse, Muscle, Nu/nu, IV 35 mg/kg",2.28 h
same,Tmax,"[1]; female, nude (nu/nu), mouse, Muscle, Nu/nu, IV 35 mg/kg, read-out: Tmax",0.08 h
same,half-life,"[1]; female, nude (nu/nu), mouse, Plasma, Nu/nu, IP 35 mg/kg",2.65 h
same,half-life,"[1]; female, nude (nu/nu), mouse, Plasma, Nu/nu, IV 35 mg/kg",0.6 h
same,half-life,"[1]; female, nude (nu/nu), mouse, Spleen, Nu/nu, IP 35 mg/kg",0.81 h
same,Tmax,"[1]; female, nude (nu/nu), mouse, Spleen, Nu/nu, IP 35 mg/kg, read-out: Tmax",24 h
same,half-life,"[1]; female, nude (nu/nu), mouse, Spleen, Nu/nu, IV 35 mg/kg",1.4 h
same,Tmax,"[1]; female, nude (nu/nu), mouse, Spleen, Nu/nu, IV 35 mg/kg, read-out: Tmax",2 h
same,dose recovered as parental KCN1 from urine,"[1]; nude mice, 35 mg/kg I.P.",less than 0.5%
same,dose recovered as parental KCN1 from urine,"[1]; nude mice, 35 mg/kg intravenously",less than 1%
same,detection in brain,[1]; [8],could not be detected after 6 h
same,"time detectable in heart, lungs, liver, spleen, kidneys and skeletal muscle",[1]; [8],at least 24 h
same,time plasma concentration still detectable,"[1]; nude mice, I.P. 35 mg/kg",≥ 24 h
same,time plasma concentration still detectable,"[1]; nude mice, I.V. 35 mg/kg",at least 6 h
same,apoptotic activity,Panc-1 cells [2],no detectable apoptotic activity
same,apoptotic index,HPAC cells [3],1.4 fold
same,apoptotic activity,BxPC3 cells,no detectable apoptotic activity
same,apoptotic activity,Mia Paca-2 cells,no detectable apoptotic activity
same,decrease in amount of KCN1,"S9 metabolism; mouse S9, phase I (oxidation) enzymes, NADPH-regenerating system",more than 60%
same,half-life with phase II enzymes,"S9 metabolism; mouse S9, phase II (conjugation) enzymes, UDPGA and PAPS",relatively long half-life
same,decrease in number of colonies formed,Panc-1 cells [4],3 fold
same,decrease in number of colonies formed,HPAC cells [5],4 fold
same,time still detectable at a low level,[6]; after intraperitoneal dosing (data not shown),at least five days
same,initial dose of parental compound recovered in feces,[6]; I.P. injection (data not shown),Approximately 1%
same,initial dose of parental compound recovered in feces,[6]; I.V. injection (data not shown),less than 1%
same,cytostatic effect,immortalized fibroblasts,little cytostatic effect
same,"pathological examination of brain, kidneys, GI tract or lungs at necropsy",[7]; data not shown,no ultra-structural changes
same,"signs of toxicity, behavior and appearance",[7]; i.p. up to 60 mg/kg daily for up to 12 weeks,no apparent signs of toxicity
same,tolerability of regimen,[7]; i.p. up to 60 mg/kg daily in cremophor:ethanol for up to 12 weeks,well tolerated
same,time to reversal of liver swelling after discontinuation of treatment,"[7]; mouse, in vivo",2–3 weeks
same,blood cell populations and blood chemistry,"[7]; preliminary analyses, data not shown",within normal limits
same,liver finding at autopsy,"[7]; tissue edema with bile duct stasis, no hepatocyte death, may be caused by cremophor:ethanol formulation",Swelling was observed in the livers
